# pIC50: −log10 of the molar value.
# What was measured:
# Cathepsin D = Cathepsin D (Homo sapiens, UniProt P07339); assay: In Vitro Enzymatic Cathepsin D (Cat D) FRET Assay
# Protocol: Recombinant Cat D was expressed in CHO cells. The assay buffer for CathepsinD is 0.05 M citrate pH 3.5, 10% DMSO final, 5 mM CHAPS. […] The assays are effectively started by the addition of different FRET substrates (20 nM for Cat D) and the combination is incubated for one hour. The FRET assay is terminated with by addition of Tris buffer, which raises the pH to neutrality, and the fluorescence is determined. The FRET substrate is a peptide with commercially available fluorophore and quencher, on opposite sides of the BACE cleavage site. […] Proteolytic cleavage of the FRET substrate releases quenching of fluorescence (Cat D excitation 500 nm and emission 580 nm).
# Beta-secretase 2 = molecular target: T1, Beta-secretase 2 (Homo sapiens, UniProt Q9Y5Z0); assay: In Vitro Enzymatic BACE1 and BACE2 FRET Assays
# T1 sequence (Q9Y5Z0 whole entry): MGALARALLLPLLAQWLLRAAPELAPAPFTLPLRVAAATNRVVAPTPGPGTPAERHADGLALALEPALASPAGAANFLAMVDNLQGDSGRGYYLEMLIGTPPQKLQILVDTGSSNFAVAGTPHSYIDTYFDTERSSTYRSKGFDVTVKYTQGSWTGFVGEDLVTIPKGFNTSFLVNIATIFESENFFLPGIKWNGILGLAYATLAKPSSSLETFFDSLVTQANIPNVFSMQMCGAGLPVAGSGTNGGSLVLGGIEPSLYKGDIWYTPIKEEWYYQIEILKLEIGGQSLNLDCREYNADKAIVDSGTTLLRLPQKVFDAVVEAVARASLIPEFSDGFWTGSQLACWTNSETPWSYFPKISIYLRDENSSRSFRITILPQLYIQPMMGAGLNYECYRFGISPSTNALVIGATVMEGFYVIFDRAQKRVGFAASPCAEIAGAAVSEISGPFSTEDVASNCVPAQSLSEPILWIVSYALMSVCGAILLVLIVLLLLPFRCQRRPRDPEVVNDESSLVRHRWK
# Protocol: (§1) The cDNAs for both human recombinant BACE1 and BACE2 with C-terminal 6-His Tags were cloned into transient protein expression vectors, which were subsequently transfected into mammalian cell lines. These recombinant proteins were further purified using Ni-NTA affinity chromatography (Qiagen). The assay buffer used in these screens is 0.05 M acetate, pH 4.5, 8% DMSO final, 100 uM genapol (which is a nonionic detergent, below its Critical Micelle Concentration). […] This assay is effectively started by the addition of FRET substrate (50 nM) and the combination is incubated for one hour. The FRET assay is terminated by addition of Tris buffer, which raises the pH to neutrality, and the fluorescence is determined. The FRET substrate is a peptide with commercially available fluorophore and quencher, on opposite sides of the BACE cleavage site.
# Beta-secretase 1 = Beta-secretase 1 (Homo sapiens, UniProt P56817); assay: In Vitro Enzymatic BACE1 and BACE2 FRET Assays
# Protocol: as §1
# Chain of Cathepsin D (P07339 65-162 limits assumed): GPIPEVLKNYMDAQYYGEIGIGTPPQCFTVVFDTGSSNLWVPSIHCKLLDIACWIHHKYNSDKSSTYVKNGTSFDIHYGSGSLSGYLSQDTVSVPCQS
# Chain of Cathepsin D (P07339 169-412 limits assumed): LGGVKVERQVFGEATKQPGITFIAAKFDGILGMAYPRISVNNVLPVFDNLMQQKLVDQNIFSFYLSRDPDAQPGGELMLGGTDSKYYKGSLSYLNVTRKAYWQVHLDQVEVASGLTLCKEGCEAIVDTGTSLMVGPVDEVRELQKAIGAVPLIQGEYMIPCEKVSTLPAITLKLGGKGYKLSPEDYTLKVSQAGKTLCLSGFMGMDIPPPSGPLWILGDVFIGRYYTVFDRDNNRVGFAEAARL
# Chain of Beta-secretase 1 (P56817 whole entry): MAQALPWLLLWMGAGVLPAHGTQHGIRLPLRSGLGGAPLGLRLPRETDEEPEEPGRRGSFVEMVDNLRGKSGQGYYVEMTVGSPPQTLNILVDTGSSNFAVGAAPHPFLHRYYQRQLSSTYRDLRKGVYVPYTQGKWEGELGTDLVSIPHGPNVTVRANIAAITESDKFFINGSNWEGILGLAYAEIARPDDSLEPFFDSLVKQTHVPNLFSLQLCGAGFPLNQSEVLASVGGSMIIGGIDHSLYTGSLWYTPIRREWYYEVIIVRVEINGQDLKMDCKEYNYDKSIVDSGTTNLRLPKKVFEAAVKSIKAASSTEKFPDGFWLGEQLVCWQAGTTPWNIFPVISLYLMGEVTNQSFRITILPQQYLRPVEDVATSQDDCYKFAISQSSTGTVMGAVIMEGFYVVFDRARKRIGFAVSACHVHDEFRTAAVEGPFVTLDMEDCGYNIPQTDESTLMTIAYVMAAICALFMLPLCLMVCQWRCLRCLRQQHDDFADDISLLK
Compound,pIC50 (Cathepsin D),pIC50 (Beta-secretase 2),pIC50 (Beta-secretase 1)
"NC1=N[C@](CF)(c2cc(Nc3ncnc4cc(Cl)cnc34)ccc2F)[C@H]2C[C@@H]2S1 [US20160046618, Example 39]",2.91,7.56,–
"Cc1cc(C#N)cnc1C(=O)Nc1cc(F)c(F)c([C@@]2(CF)N=C(N)S[C@@]3(C(F)F)C[C@@H]23)c1 [US20160046618, Example 94]",3.25,> 8.69,–
"C#C[C@H](C)Oc1cnc(C(=O)Nc2cc(F)c(F)c([C@@]3(C)N=C(N)S[C@@]4(CF)C[C@H]43)c2)c(C)n1 [US20160046618, Example 616]",3.04,6.91,8.47
"C[C@]1(c2cc(NC(=O)c3ccc(Cl)cn3)cc(F)c2F)N=C(N)S[C@@]2(C(=O)O)C[C@H]21 [US20160046618, Example 899]",< 3.40,8.59,8.05

# Further lines, results first:
pIC50 (Cathepsin D),pIC50 (Beta-secretase 2),pIC50 (Beta-secretase 1),Compound
3.02,6.65,8.31,"C#C[C@H](C)Oc1cnc(C(=O)Nc2cc(F)c(F)c([C@@]3(C)N=C(N)S[C@@]4(COC)C[C@H]43)c2)c(C)n1 [US20160046618, Example 622]"
3.71,6.28,7.36,"C#C[C@H](C)Oc1cnc(C(=O)Nc2ccc(F)c([C@@]3(C)N=C(N)S[C@@]4(C(F)F)C[C@@H]34)c2)c(C)c1 [US20160046618, Example 648]"
3.82,7.83,9.58,"C#CCOc1cnc(C(=O)Nc2ccc(F)c([C@@]3(C)N=C(N)S[C@@]4(CF)C[C@H]43)c2)cn1 [US20160046618, Example 822]"
2.90,8.27,9.21,"NC1=N[C@](CF)(c2cc(Nc3nccc4nc(OCc5ncco5)cnc34)ccc2F)[C@@H]2C[C@]2(c2c[nH]nn2)S1 [US20160046618, Example 957]"
< 3.40,6.26,7.43,"C=CC(C)Oc1cnc(C(=O)Nc2ccc(F)c([C@@]3(C)N=C(N)S[C@@]4(COC)C[C@H]43)c2)cn1 (stereo not given in full) [US20160046618, Example 1063]"

# Reference: BindingDB's records for patent US20160046618 (Amgen, 2016)
